Measured values taken from patent US8715947B2, “Inhibition of the interaction between 5T4 oncofoetal glycoproteins and CXC chemokine receptors as a method of identifying chemotaxis inhibitors” (Cancer Research Technology Limited, priority 2009, dated 2014).
“Also recorded” adds a separate entry of the source.

What was measured:
5T4KO ES cells = experiment: CXCL12 chemotaxis of 5T4KO ES cells in transwell chambers; format: cell-based, mouse; details: undifferentiated or differentiating 5T4KO ES cells; 10 μM
Experimental: (§1) Chemotaxis was assessed using transwell chambers as previously described for cellular motility assays [16; the contents of which are expressly incorporated herein in their entirety] in the presence or absence of the chemokine CXCL12 (R&D systems), at a concentration of 10 ng/well for ES cell experiments, and 30 ng/well for all others. Inhibition studies were performed in the presence of 10 μM Diprotin A (Sigma) for CD26, 10 μM AMD3100 (Sigma) for CXCR4 or 10 μg/well mouse anti-CXCL12 (R&D systems) or Pertussis Toxin (Sigma, 10 ng/ml). For m5T4 specific mAb inhibition of chemotaxis or control Ig; antibodies were premixed with 50,000 differentiating WT-ES or MEF cells/ml and added to the transwell chambers as above. CXCL16 (R&D 10 ng/ml), the ligand for CXCR6 and CXCL10 (R&D 100 ng/ml), a ligand for CXCR3 were used to assess chemotaxis in undifferentiated and/or differentiating WT and 5T4KO ES cells.

JEG-3 = experiment: CXCL12 chemotaxis of JEG-3 choriocarcinoma cells; format: cell-based, human; details: 10 μM diprotin A, 30 ng/well CXCL12
Experimental: as §1

SKOV3 = experiment: CXCL12 chemotaxis of SKOV3 ovarian carcinoma cells; format: cell-based, human; details: 10 μM diprotin A, 10 ng/well CXCL12
Experimental: as §1, with “at a concentration of 10 ng/well for ES cell experiments, and 30 ng/well for all others.” left out
A series of 5T4 constructs were built for this study and cloned into pCMVα, and the retroviral vector SFβ91 [32] that we had previously inserted the cDNA cassette eGFP under the transcriptional control of an IRES (Clonetech). […] A multiplicity of 30 infectious units per cell led to 100% of cells expressing m5T4 or h5T4 or GFP at 48 hours as assessed by FACS and when other biological assessments were made. […] After 3 days, GFP positive cells were FACS sorted and assessed for 5T4 expression and chemotaxis to CXCL12.

CAOV3 = experiment: CXCL12 chemotaxis of CAOV3 ovarian carcinoma cells; format: cell-based, human; details: 10 μM diprotin A, 10 ng/well CXCL12
Experimental: as §1, with “at a concentration of 10 ng/well for ES cell experiments, and 30 ng/well for all others.” left out

WT and 5T4KO ES cells = experiment: CXCL10 chemotaxis of ES cells; format: cell-based, mouse; details: 100 ng/well CXCL10
[1] = tested on: primary murine embryonic fibroblasts; experiment: Immunofluorescence pattern of 5T4 and CXCR4 in primary murine embryonic fibroblasts after cytoskeleton, Golgi or microtubule disruption; format: cell-based, mouse; details: for cell surface expression and colocalisation of 5T4 and CXCR4 versus untreated controls: 985 nM cytochalasin D or 3.6 μM brefeldin A; for cell surface expression and colocalisation of 5T4 and CXCR4 after washout: one hour after washout
Experimental: Immunofluorescence In Situ. These studies were performed using methods described previously (39), with cells grown on 24 well glass bottomed plates, (Iwaki, supplied through Jencons) for ES cells the wells were pre coated with 0.1% gelatine. Primary antibodies used were rabbit anti-CXCR4, (5 μg/ml) (Abcam), rat-anti-DPIV (5 μg/ml), (R&D), mAb anti-human 5T4 (10 μg/ml,), mAb anti-m5T4, 9A7 (20 μg/ml), B3F1 (5 μg/ml), rabbit anti-CXCR7 (AbCam, 5 μg/ml), rat mAb anti-CXCR6 (R&D, 5 μg/ml), rat mAb anti-CXCR3 (R&D, 5 μg/ml), Alexa Fluor 488 mouse anti-myc tag clone 4A6 (Millipore) or appropriate isotype controls. Secondary detection was performed by incubation for 1 hour at 4° C. with species or IgG sub-class specific Alexa Fluor conjugated secondary antibodies (Invitrogen) (6 μg/ml) as appropriate for multiple antigen detection. Labelling of the endoplasmic reticulum and Golgi apparatus was performed using NBD C6-Ceramide or Endotracker, (Invitrogen, Molecular Probes) as per manufacturer's instructions. […]. F-Actin was labeled using Phaloidin-633 Alexa Fluor (Invitrogen). Microtubules were visualised by murine IgG recognizing β-tubulin (Cancer Research UK). Cells were imaged on a Zeiss Axiovert 200M with a plan-fluar ×100 1.45NA objective lens and a Roper Cascade EMCCD 512B camera. Illumination was achieved using a 300W Xenon system, (Sutter) which presented the system as an even field of illumination in addition to the appropriate neutral density and Schott filters to modulate the light source. Wavelength selection was achieved using external filter wheels, (Applied Scientific Instrumentation) and the ETSedat set, (Chroma). Data sets were captured with an axial resolution of 100 nm using the MS-2000 stage (Applied Scientific Instrumentation) and a lateral resolution of 0.1645 microns per pixel. The system was full controlled and automated via the FRAP-AI software, (MAG Biosystems/Metamorph). All of the data sets were deconvolved using Huygens (Scientific Volume Imaging) after which visualization and analysis was carried out using Imaris, (Bitplane). Colocalisation was assessed by analysis of the deconvolved images utilising ImarisColoc software (Bitplane) in manual mode. A 2D scatter plot showing intensity pairs in the image was thresholded to include only colocalized points in the three dimensional volume.
Primary murine embryonic fibroblasts were assessed for their pattern of 5T4 and CXCR4 expression by immunofluorescence following disruption of the cytoskeleton, Golgi or microtubules for 24 hours with cytochalasin D, brefeldin A or nocodazole respectively. Cytoskeleton, Golgi and microtubule disruption was determined by immunofluorescence with AlexaFluor 633 conjugated phalloidin, BODIPY labeled NBD C6 ceramide and anti-tubulin antibodies respectively. […] Clearly plasma membrane detection of co-localized 5T4/CXCR4 molecules is dependent on microtubules and the molecules are not obligatorily associated at the Golgi.

ERK phosphorylation = ERK phosphorylation in MEFs by Western blot; format: cell-based, mouse; details: 50 μM PD98059, 50 μM LY294002 or 10 μM AMD3100; for increase in ERK phosphorylation in response to CXCL12 stimulation: WT MEFs; for increase in ERK1/2 phosphorylation in response to PMA stimulation: WT and 5T4KO MEFs
Experimental: Western blots were carried out using a BioRad Mini-PROTEAN Tetra (Thermo Fisher) supplemented with protease and phosphatase inhibitor cocktails (Thermo Fisher). RIPA buffer (50 mM Tris-Cl pH 7.4, 150 mM NaCl, 1% NP40, 0.25% Na-deoxycholate, 1 mM PMSF and protease and phosphatase inhibitor cocktail) was used as an alternative method of cell lysis. […] Other primary antibodies used were ERK1/2, phospho-ERK1/2 (Thr202/Tyr204/Thr185/Tyr187), AKT and phospho-AKT (Thr308) (Cell Signalling Technology) at 1:1000. Following secondary antibody labelling using appropriate HRP conjugates (AbSerotec) hybridizing bands were detected using SuperSignal West Dura (Thermo Fischer). For immunoprecipitation experiments cells were lysed in M-PER (Thermo Fischer) according to manufacturer's instructions and enriched for the membrane fraction on a 45% sucrose gradient by ultracentrifugation. 100 μg of the membrane enriched fraction was incubated with 1 μg of rabbit polyclonal anti-CXCR4 (Abcam) or 1 μg of mouse anti-monoclonal h5T4 or appropriate irrelevant control antibodies for 1 hour at room temperature. A 50% slurry of Protein G beads (Amersham) was then added and incubated for 1 hour at room temperature. Beads were subsequently washed 7 times with 1 ml PBS+0.1% Triton X-100, and then resuspended in PAGE loading buffer (Thermo Fisher), boiled for 3 minutes and loaded onto 4-15% gradient gel and processed as described for Westerns above. Gels were run in Lamelli buffer (25 mM Tris-base, 192 mM glycine, 0.1% SDS). Antibodies to CXCR7 were used in western blot analysis of PAGE separated MEF cells solubilised 1%.

CXCR4 [2] = target: T1, CXCR4 (Mus musculus, UniProt P70658); details: in vivo; cited from earlier work
WT-ES cells = experiment: CXCL12 chemotaxis of WT-ES cells in transwell chambers; format: cell-based, mouse
Experimental: as §1

CXCR4 [3] = target: T1, CXCR4; details: in vivo; cited from earlier work; remark: listed apart in the source

T1 sequence (P70658 whole entry): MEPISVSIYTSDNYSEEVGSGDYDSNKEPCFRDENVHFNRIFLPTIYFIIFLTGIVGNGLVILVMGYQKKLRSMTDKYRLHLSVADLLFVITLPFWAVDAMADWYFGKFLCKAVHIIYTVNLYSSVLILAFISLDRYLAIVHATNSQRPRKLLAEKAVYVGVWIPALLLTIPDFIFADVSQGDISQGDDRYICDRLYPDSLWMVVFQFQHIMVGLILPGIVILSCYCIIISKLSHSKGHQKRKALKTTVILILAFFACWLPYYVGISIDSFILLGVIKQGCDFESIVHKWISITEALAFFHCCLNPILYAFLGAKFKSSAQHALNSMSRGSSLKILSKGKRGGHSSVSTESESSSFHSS

In the case of CC[C@H](C)[C@H](N)C(=O)N1CCC[C@H]1C(=O)N[C@H](C(=O)O)[C@@H](C)CC [diprotin A], the “chemotactic response to CXCL12 with CD26 inhibitor” value (5T4KO ES cells) is reported as “did not restore chemotactic behaviour; also recorded: no change in chemotactic response”, the “CXCL12-mediated chemotaxis with CD26 inhibitor” value (JEG-3) is reported as “only evident in the presence” and the “CXCL12 chemotaxis with CD26 inhibitor” value (SKOV3) is reported as “further enhanced”. The “CXCL12 chemotaxis with CD26 inhibitor” value (CAOV3) was “further enhanced” and the “chemotaxis towards CXCL10 with CD26 inhibitor” value (WT and 5T4KO ES cells; undifferentiated ES cells, 10 μM) was “acquire increased chemotaxis towards CXCL10”.
In the case of C=C1[C@@H](C)[C@H]2[C@H](Cc3ccccc3)NC(=O)[C@]23[C@H](OC(C)=O)/C=C/[C@@](C)(O)C(=O)[C@@H](C)C/C=C/[C@H]3[C@@H]1O [cytochalasin D], the “polymerized actin filaments (phalloidin immunofluorescence)” value ([1]; 24 hours treatment, 985 nM cytochalasin D) is reported as “no polymerized actin filaments were detectable” and the “cell surface expression and colocalisation of 5T4 and CXCR4 versus untreated controls” value ([1]; 24 hours) is reported as “no detectable differences”.
For COc1cccc(-c2cc(=O)c3ccccc3o2)c1N [PD98059], the “increase in ERK phosphorylation in response to CXCL12 stimulation” value (ERK phosphorylation) was “prevented” and the “increase in ERK1/2 phosphorylation in response to PMA stimulation” value (ERK phosphorylation) was “blocked by MEK1 inhibition”.
In the case of c1ccc(CNCc2ccc(CN3CCCNCCNCCCNCC3)cc2)nc1 [AMD3465], the pulmonary granuloma formation (CXCR4 [2]) is given as “eliminates”.
For COC(=O)Nc1nc2ccc(C(=O)c3cccs3)cc2[nH]1 [nocodazole], the “cell surface detection of 5T4” value ([1]; 24 hours, 332 nM nocodazole) was “remained detectable at the cell surface albeit at a diminished level; also recorded: still detectable at the cell surface albeit at a diminished level”, the “cell surface detection of CXCR4” value ([1]; 24 hours, 332 nM nocodazole) was “no cell surface detection of CXCR4” and the “cell surface expression and colocalisation of 5T4 and CXCR4 after washout” value [1] was “both antigens were detectable at the cell surface with marked colocalisation similar to controls”.
With C[C@H]1CCC/C=C/[C@@H]2C[C@H](O)C[C@H]2[C@H](O)/C=C/C(=O)O1 [brefeldin A] the “cell surface expression and colocalisation of 5T4 and CXCR4 versus untreated controls” value ([1]; 24 hours) was “reduced levels of cell surface expression of both antigens” and the “cell surface expression and colocalisation of 5T4 and CXCR4 after washout” value [1] was “returned to normal levels; also recorded: returned to levels with marked cell surface colocalisation similar to that of controls”.
With c1cc(CN2CCCNCCNCCCNCC2)ccc1CN1CCCNCCNCCCNCC1 [AMD3100] the “chemotaxis to CXCL12 with CXCR4 inhibitor” value (WT-ES cells; differentiating WT-ES cells, 2 hr pre-incubation with 10 μM) was “blocked”, the “chemotaxis to CXCL12 with CXCR4 inhibitor” value (WT-ES cells; undifferentiated WT-ES cells, 10 μM) was “no effect” and the “increase in ERK phosphorylation in response to CXCL12 stimulation” value (ERK phosphorylation) was “prevented”. For the same compound, the “increase in ERK1/2 phosphorylation in response to PMA stimulation” value (ERK phosphorylation) was “independent of both CXCR4 and PI3K activity” and the “allergic lung inflammation and airway hyperreactivity” value (CXCR4 [3]) was “attenuates”.
With pertussis toxin the “CXCL10 related chemotaxis with Gi protein inhibitor” value (WT and 5T4KO ES cells; WT and KO differentiating ES cells, 10 ng/ml) was “inhibits CXCL10 related chemotaxis”.
